# Experiments:
# Assay type in all cases: in vivo
# [1] = system: anesthetized lamb with acute pulmonary hypertension due to U46619 infusion; assay: Continuous NO generation with respiratory system 10 (NO generator 14) in anesthetized lambs with U46619-induced pulmonary hypertension
# Source text: (§1) Animal studies were approved by the Institutional Animal Care and Use Committee of Massachusetts General Hospital (Boston, MA). Eight lambs (New England Ovis, Dover, NH) weighing 32±2 kg were studied. General anesthesia was induced with 5% inhaled isoflurane (1-chloro-2,2,2-trifluoroethyldifluromethyl ether, Baxter, Deerfield, IL) in oxygen delivered via a mask and then maintained with 1-4% isoflurane in 50% oxygen during surgery. After tracheal intubation, the lambs were instrumented with indwelling carotid artery pulmonary artery catheters. All hemodynamic measurements were performed in anesthetized lambs ventilated with a mechanical ventilator (model 7200, Puritan Bennett, Pleasanton, CA) at a tidal volume of […] and rate of 12-15 breaths/min.
# (§2) To induce pulmonary hypertension, a potent pulmonary vasoconstrictor U46619 (Cayman Chemical, Ann Arbor, MI), the analog of the endoperoxide prostaglandin H2, was infused intravenously at a rate of 0.8-0.9 μg/kg/min to increase pulmonary arterial pressure (PAP) to 30 mmHg. The mean arterial pressure and PAP were continuously monitored using a Gould 6600 amplifier system (Gould Electronics, Inc., Eastlake, OH). Pulmonary capillary wedge pressure, heart rate, and cardiac output were intermittently measured at baseline, during U46619 infusion, and before and after inhalation of NO generated using either the respiratory system 10, the respiratory system 100, or NO delivered and diluted at the same level from a compressed gas cylinder. Cardiac output was assessed by thermal dilution as the average of three measurements after an intravenous bolus injection of 10 mL of ice-cold saline solution. Pulmonary vascular resistance index (PVRI), as well as cardiac index (CI), were calculated using standard formulae. The gas cylinder contained 500 ppm NO diluted in nitrogen.
# The respiratory system 10 was tested with an anesthetized lamb as the patient 11. A baseline (BL) was generated then the NO generator 14 of the respiratory system 10 was triggered to continuously spark (i.e., generate NO) after […] was administered for 30 minutes. The NO was pumped at 5 L/min into the inspiratory line 18. The electrodes 36 were fabricated from iridium-platinum. Once triggered, the controller 33 was configured to spark the electrodes 36 for 4 minutes using the following settings: B=35, N=25, P=240 μs; and H=100 μs, which produced approximately 40 ppm of NO, and then the controller 33 stopped the NO generator 14. The test was performed when 21% oxygen was supplied to the inlet 24 of the NO generator 14, when 50% oxygen was supplied to the inlet 24 of the NO generator 14, and compared with NO supplied at the same concentration to the anesthetized lamb from a gas cylinder. […]
# [2] = system: anesthetized lamb with acute pulmonary hypertension; assay: Continuous NO generation with respiratory system 100 (NO generator 102) in anesthetized lambs with U46619-induced pulmonary hypertension
# Source text: as §1, §2
# The respiratory system 100 was tested with an anesthetized lamb as the patient 11. A baseline (BL) was generated then the NO generator 102 of the respiratory system 100 was triggered to continuously spark (i.e., generate NO) after U46619 was administered for 30 minutes. The electrodes 36 were fabricated from iridium-platinum. Once triggered, the controller 33 was configured to spark the electrodes 36 for 4 minutes using the following settings: B=35, N=25, P=240 μs; and H=100 μs, which produced approximately 40 ppm of NO, and then the controller 33 stopped the NO generator 102. The test was performed when 21% oxygen was supplied in the inspiratory line 18, when 50% oxygen was supplied in the inspiratory line 18, and when NO was supplied to the anesthetized lamb diluted from a compressed gas cylinder.
# Also, the reduction in PAP and PVRI for the NO produced by the NO generator 102 was similar to the reduction in PAP and PVRI for the NO supplied by the gas cylinder. […]
# [3] = system: anesthetized lamb with acute pulmonary hypertension; assay: Intermittent NO generation with respiratory system 100 (NO generator 102) in anesthetized lambs with U46619-induced pulmonary hypertension; settings: 4 minutes
# Source text: as §1, §2
# The respiratory system 100 was tested with an anesthetized lamb as the patient 11. A baseline (BL) was generated then the NO generator 102 of the respiratory system 100 was triggered to intermittently spark (i.e., generate NO) after U46619 was administered for 30 minutes. The electrodes 36 were fabricated from iridium-platinum. The controller 33 was configured to spark the electrodes 36 only during the first 0.8 seconds of inspiration for 4 minutes using the following settings: B=35, N=25, P=240 μs; and H=100 μs and then the controller 33 stopped the NO generator 102, The test was performed when 21% oxygen was supplied in the inspiratory line 18, when 50% oxygen was supplied in the inspiratory line 18, and when NO was supplied to the anesthetized lamb from a gas cylinder.
# Also, the reduction in PAP and PVRI for the NO produced by the NO generator 102 was similar to the reduction in PAP and PVRI for NO supplied and diluted from the compressed gas cylinder. […]
# [4] = NO produced by NO generator 14, continuous sparking, 4 minutes
# [5] = inhaled NO approximately 40 ppm continuously produced by NO generator 14 for 4 minutes, breathing 21% and 50% oxygen
# [6] = NO produced by NO generator 102, continuous sparking, 4 minutes
# [7] = inhaled NO approximately 40 ppm continuously produced inline by NO generator 102 for 4 minutes, breathing 21% and 50% oxygen
# [8] = NO produced by NO generator 102, intermittent sparking
# [9] = NO produced by NO generator 102 only during first 0.8 seconds of inspiration, breathing 21% and 50% oxygen
compound,measurement,setting,value
"[N]=O [NO, nitric oxide]",reduction in PAP compared with NO supplied at the same level by dilution from the gas cylinder,[1]; [4],similar
same,reduction in PVRI compared with NO supplied at the same level by dilution from the gas cylinder,[1]; [4],similar
same,mean pulmonary artery pressure (PAP),[1]; [5],rapidly reduced
same,pulmonary vascular resistance index (PVRI),[1]; [5],rapidly reduced
same,reduction in PAP compared with NO supplied by the gas cylinder,[2]; [6],similar
same,reduction in PVRI compared with NO supplied by the gas cylinder,[2]; [6],similar
same,mean pulmonary artery pressure (PAP),[2]; [7],rapidly reduced
same,pulmonary vascular resistance index (PVRI),[2]; [7],rapidly reduced
same,reduction in PAP compared with NO supplied and diluted from the compressed gas cylinder,[3]; [8],similar
same,reduction in PVRI compared with NO supplied and diluted from the compressed gas cylinder,[3]; [8],similar
same,mean pulmonary artery pressure (PAP),[3]; [9],rapidly reduced
same,pulmonary vascular resistance index (PVRI),[3]; [9],rapidly reduced

# Reference: patent US12383692B2, “Systems and methods for synthesis of nitric oxide” (The General Hospital Corporation, priority 2014, dated 2025)
